These results are taken from patent US20150290294A1, “METHODS FOR INHIBITING PLATELET AGGREGATION USING GLP-1 RECEPTOR AGONISTS” (priority 2012, published 2015).

The test system of one test is MEG-01 cells. Briefly: Intracellular cAMP EIA assay. The format is cell-based, human. How it is done:
An EIA kit (Cayman Chemicals) was employed to measure intracellular cAMP levels. […] 3-isobutyl-1-methylxanthine (IBMX) was added to each well at a concentration of 0.5 μM and allowed to incubate for 10 min at 37° C. to inhibit phosphodiesterase activity. As a positive control for cAMP generation in MEG-01 cells, PGI2 was added at a concentration of 0.02 ng/ml to control wells and incubated for 10 min at 37° C. PBS was used as a negative control. After incubation, cells were lysed by adding EDTA to a concentration of 10 mM. Lysed cells were transferred to 1.5 ml eppendorf tubes and boiled for 5 min at 95° C. Samples were spun down at 10000 xg for 15 min at 4° C. Supernatant was removed and frozen at −80° C. The cAMP EIA kit assay was then carried out according to manufacturer's instructions.
Given the limited specificity of Abs raised against GPCRs, RT-PCR was performed on RNA from MEG-01 cells with primers designed to yield full-length human GLP-1R cDNA.

A further test concerns platelets. The note with it: associated with inhibitory effect on intracellular free calcium and tyrosine phosphorylation; cited from earlier work.
Test [1] relates to human gel-filtered platelets. Briefly: Thrombin-induced platelet aggregation (aggregometer). The following applies: for effect on thrombin-induced human platelet aggregation vs PBS control: 100 pM-1 uM (10^-10 to 10^-6 M); for effect on thrombin-induced human platelet aggregation vs PBS control / effect on human platelet aggregation after thrombin stimulation: 15 min 37 °C; for effect on human platelet aggregation after thrombin stimulation: 10 nM each, 0.5 U thrombin. Type of test: cell-based. Here is the method:
Platelets were then stimulated with thrombin and aggregation was measured using an aggregometer.

Ends that are not written are not given here.

Take `CCCCC[C@H](O)/C=C/[C@@H]1[C@H]2C/C(=C/CCCC(=O)O)O[C@H]2C[C@H]1O` [PGI2, prostacyclin PGI2, reference compound]: in the test with MEG-01 cells (PGI2 0.02 ng/ml, 10 min 37 °C), the “cAMP response (positive control)” value is listed as 16 fold.

In the case of `N[C@@H](CC(=O)N1CCn2c(nnc2C(F)(F)F)C1)Cc1cc(F)c(F)cc1F` [sitagliptin], in the test with platelets, the anti-platelet activity entry is recorded as “exhibited anti-platelet activity”.

Turning to GLP-1(7-36), the “effect on thrombin-induced human platelet aggregation vs PBS control” value in test [1] (thrombin 0.125 U) was “delayed and reduced”; in test [1] (thrombin 0.125 U, listed as GLP-1), “delayed and reduced platelet aggregation”. Moreover, the “effect on human platelet aggregation after thrombin stimulation” value in test [1] is on record as “delayed human platelet aggregation”. Moreover, the “total area under curve of aggregation” value in test [1] (between 0.1 nM and 100 nM, thrombin 0.125 U, not significant, n=3) is on record as “some inhibition of platelet activity”. Further, the “intracellular cAMP, qualitative” value with MEG-01 cells (15 min incubation, 100 pM to 100 nM, n=3) was “dose-dependent increase in cAMP”.

For the compound “GLP-1(9-36) (EGTFTSDVSSYLEGQAAKEFIAWLVKGR-NH2)”, the “effect on human platelet aggregation after thrombin stimulation” value in test [1] is on record as “delayed human platelet aggregation”; in test [1] (listed as GLP-1(9-36)^NH2) it was “inhibited human platelet aggregation, but to a lesser extent than GLP-1(7-36)^NH2”.
